Results from US20030091975A1, “Multiple determinants for metabolic phenotypes” (priority 2001, published 2003).
Marks after values point to notes of the source that are not given here.

Columns and labels:
Assay type in all cases: binding, rabbit
AAMU-Ab = test: Competitive antigen ELISA, cross-reactivity of AAMU-Ab; conditions: for % Cross-Reaction AAMU-Ab: 0 = absence of inhibition or inhibition no higher than 40% at the highest concentration tested (5×10^−3 M)
Method: (§1) Buffers and water without additives are filtered through millipore filters and kept for 1 week. BSA, antibodies, Tween™ 20 and horse radish peroxidase conjugates are added to these buffers and water just prior to use. Urine samples are usually collected 4 hours after drinking a cup of coffee (instant or brewed with approximately 100 mg of caffeine per cup) and stored at −80° C. The urine samples are diluted 10 times with sodium phosphate buffer (620 mosm, pH 7.50) and are subsequently diluted with water to give concentrations of AAMU and 1X no higher than 3×10^−6 M in the ELISA. All the pipettings are done with an eight-channel pipette, except those of the antibody and sample solutions. Starting with the last well, 100 μL of a carbonate buffer (100 mM, pH 9.6) containing 2.5 μg mL-1 antibodies are added to each well. After 90 min. at room temperature, the wells are washed three times with […] of TPB: isotonic sodium phosphate buffer (310 mosm, pH 7.50) containing 0.05% Tween™ 20.
(§2) After the initial wash, unoccupied sites are blocked by incubation for 90 min. at room temperature with 100 μL TBP containing 3% BSA. The wells are washed four times with 100 μL TPB. […] The microplate is gently shaken with an orbital shaker at room temperature for 3-4 hours. The wells are washed three times with 100 μL TPB containing 1% BSA and three times with water containing 0.05% Tween ™ 20. To the washed plate is added 150 μL of a substrate buffer composed of citric acid (25 mM) and sodium phosphate dibasic buffer (50 mM, pH 5.0) containing 0.06% hydrogen peroxide and 0.04% o-phenylenediamine hydrochloride.
(§3) Buffers and water without additives were filtered through millipore filters and kept for 1 week. BSA, antibodies, Tween ™ 20 and horse radish peroxidase conjugates were added to these buffers and water just prior to use. Urine samples were usually collected 4 hours after drinking a cup of coffee (instant or brewed with approximately 100 mg of caffeine per cup) and stored at 80° C. They were diluted 10 times with sodium phosphate buffer (620 mosm, pH 7.50) and were subsequently diluted with water to give concentrations of AAMU and 1X no higher than 3×10^−6 M in the ELISA. All the pipettings were done with an eight-channel pipette, except those of the antibody and sample solutions. Starting with the last well, 100 μL of a carbonate buffer (100 mM, pH 9.6) containing 2.5 μg mL^−1 antibodies was pipetted. After 90 min. at room temperature, the wells were washed three times with 100 μL of TPB: isotonic sodium phosphate buffer (310 mosm, pH 7.50) containing 0.05% Tween™ 20.
(§4) After the initial wash, unoccupied sites were blocked by incubation for 90 min. at room temperature with 100 μL TBP containing 3% BSA. The wells were washed four times with 100 μL TPB. […] The microplate was gently shaken with an orbital shaker at room temperature for 3-4 hours. The wells were washed three times with 100 μL with TPB containing 1% BSA and three times with water containing 0.05% Tween™ 20. To the washed plate was added 150 μL of a substrate buffer composed of citric acid (25 mM) and sodium phosphate dibasic buffer (50 mM, pH 5.0) containing 0.06% hydrogen peroxide and 0.04% o-phenylenediamine hydrochloride. After 20 min. at room temperature with shaking, the reaction was stopped with 50 μL of 2.5 N HCl.
(§5) The cross reactivities of AAMU-Ab and 1X-Ab were tested using a wide variety of caffeine metabolites and structural analogs (Table 5 below).

1,7-DMX-Ab = test: Competitive antigen ELISA, antibody specificity of 1,7-DMX-Ab; conditions: ideal antibody specificity result hypothesized; 0 = no inhibition or no higher than 40% at 5×10^−3 M
Method: (§6) BSA, antibodies, Tween™ 20 and horse radish peroxidase are added to buffers and water just prior to use. Urine samples are usually collected four hours after drinking a cup of coffee (instant or brewed with approximately 100 mg of caffeine per cup) and stored at −20° C. as 1-mL aliquots in 1.5-mL microtubes. For the ELISA, the urine samples are diluted with isotonic sodium phosphate buffer, pH 7.5 (310 mosM) to give concentrations of caffeine, 1.7-DMX and 1,7-DMU no higher than 3×10^−6 M in the microtiter plate wells. Wells of the ELISA plate are washed with a Nunc-Immuno wash 12 washer. Sixteen milliliters of a solution of 6.6 μg ml^−1 of isolated IgG antibodies is prepared in a 100 mM sodium carbonate buffer, pH 9.6, and 150 μL of this solution is pipetted in each well of a microtiter plate using a eight channel pipet (Brinkmann Transferpette™-8 50-200 μL) and 200 μL Flex tips from Brinkmann). After coating the wells with antibodies at 4° C. for 20 hours, the wells are washed 3 times with the isotonic sodium phosphate buffer containing 0.05% Tween™ 20 (IPBT) and properly drained by inverting the plate and absorbing the liquid on to a piece of paper towel. Thirty milliliters of a solution of a IPBT solution containing 1% BSA is prepared and 150 μL of this solution is pipetted in each well using a eight channel pipet (Brinkmann Transferpette ™-8 50-200 μL) and 200 μL yellow tips (Sarstedt yellow tips for P200 Gilson Pipetman). After 3 hours at room temperature, the wells are washed 3 times with IPBT solution and drained. Samples of 400 μL for determination of caffeine, 1,7-DMX and 1,7-DMU are prepared in 1.5-mL microtubes using Sarstedt yellow tips and a P200 Gilson Pipetman. Then, 200 μL of each sample are pipetted in duplicate in a Falcon 96-well microtest tissue culture plate according to the pattern shown in FIG. 22, using Sarstedt yellow tips and a P200 Gilson Pipetman. Using an eight channel pipet (Brinkmann Transferpette™-8 50-200 μL) and changing the tips of the eight channel pipet (200μL Flex tips from Brinkmann) at each row, 150 μL of samples are transferred in the corresponding wells of a 96-well ELISA microtiter plate coated with antibodies. After the addition of the samples, the microtiter plates are covered and left standing at room temperature for 2 h. While the plate is left standing the substrate buffer without the hydrogen peroxide and o-phenylenediamine hydrochloride is prepared (25 mM citric acid and 50 mM sodium phosphate dibasic buffer, pH 5.0). The microtiter plate is washed 3 times with the IPBT solution and 3 times with a 0.05% Tween™ 20 solution and drained. Then, 50 μL of hydrogen peroxide and 40 mg of o-phenylenediamine are added to the substrate buffer. One hundred fifty microliters (150 μL) of the substrate buffer solution is then added to each well using a eight channel pipet (Brinkmann Transferpette™-8 50-200 μL) and 200 μL Flex tips (Brinkmann). The microtiter plate is covered and shaken for 25-30 min at room temperature and the enzymatic reaction is stopped by adding 50 μL/well of a 2.5 N HCl solution using an eight channel pipet (Brinkmann Transferpette™-8 50-200 μL) and 200L Flex tips (Brinkmann).

1X-Ab = test: Competitive antigen ELISA, cross-reactivity of 1X-Ab; conditions: for % Cross-Reaction 1X-Ab: 0 = absence of inhibition or inhibition no higher than 40% at the highest concentration tested (5×10^−3 M)
Method: as §1, §2, §3, §4, §5

Caffeine-Ab = test: Competitive antigen ELISA, antibody specificity of caffeine-Ab; conditions: ideal antibody specificity result hypothesized; 0 = no inhibition or no higher than 40% at 5×10^−3 M
Method: as §6

1,7-DMU-Ab = test: Competitive antigen ELISA, antibody specificity of 1,7-DMU-Ab; conditions: ideal antibody specificity result hypothesized; 0 = no inhibition or no higher than 40% at 5×10^−3 M
Method: as §6

Structure (SMILES): Cn1c(=O)c2c(ncn2C)n(C)c1=O [1,3,7-Trimethyl Xanthine (Caffeine), 1,3,7-Trimethyl Xanthine]
- % Cross-Reaction AAMU-Ab (AAMU-Ab): 0%
- % Cross-reaction 1,7-DMX-Ab (1,7-DMX-Ab): 0^a %
- % Cross-Reaction 1X-Ab (1X-Ab): 0%
- % Cross-reaction Caffeine-Ab (Caffeine-Ab): 100%
- % Cross-reaction 1,7-DMU-Ab (1,7-DMU-Ab): 0%

Structure (SMILES): Cn1c(=O)c2c([nH]c(=O)n2C)n(C)c1=O [1,3,7-Trimethyluric acid]
- % Cross-reaction 1,7-DMX-Ab (1,7-DMX-Ab): 0%
- % Cross-reaction Caffeine-Ab (Caffeine-Ab): 0%
- % Cross-reaction 1,7-DMU-Ab (1,7-DMU-Ab): 0%

Structure (SMILES): Cn1c(=O)c2[nH]cnc2n(C)c1=O [1,3-Dimethyl Xanthine (Theophylline), 1,3-Dimethyl Xanthine]
- % Cross-Reaction AAMU-Ab (AAMU-Ab): 0%
- % Cross-reaction 1,7-DMX-Ab (1,7-DMX-Ab): 0%
- % Cross-Reaction 1X-Ab (1X-Ab): 0.2%
- % Cross-reaction Caffeine-Ab (Caffeine-Ab): 0%
- % Cross-reaction 1,7-DMU-Ab (1,7-DMU-Ab): 0%

Structure (SMILES): Cn1c(=O)c2[nH]c(=O)[nH]c2n(C)c1=O [1,3-Dimethyluric acid]
- % Cross-reaction 1,7-DMX-Ab (1,7-DMX-Ab): 0%
- % Cross-reaction Caffeine-Ab (Caffeine-Ab): 0%
- % Cross-reaction 1,7-DMU-Ab (1,7-DMU-Ab): 0%

Structure (SMILES): Cn1c(=O)[nH]c2ncn(C)c2c1=O [1,7-Dimethyl Xanthine (Paraxanthine), 1,7-Dimethyl Xanthine]
- % Cross-Reaction AAMU-Ab (AAMU-Ab): 0%
- % Cross-reaction 1,7-DMX-Ab (1,7-DMX-Ab): 100%
- % Cross-Reaction 1X-Ab (1X-Ab): 0.5%
- % Cross-reaction Caffeine-Ab (Caffeine-Ab): 0%
- % Cross-reaction 1,7-DMU-Ab (1,7-DMU-Ab): 0%

Structure (SMILES): Cn1c(=O)[nH]c2[nH]c(=O)n(C)c2c1=O [1,7-Dimethyluric acid]
- % Cross-Reaction AAMU-Ab (AAMU-Ab): 0%
- % Cross-reaction 1,7-DMX-Ab (1,7-DMX-Ab): 0%
- % Cross-Reaction 1X-Ab (1X-Ab): 0%
- % Cross-reaction Caffeine-Ab (Caffeine-Ab): 0%
- % Cross-reaction 1,7-DMU-Ab (1,7-DMU-Ab): 100%

Structure (SMILES): Cn1c(=O)[nH]c2nc[nH]c2c1=O [1-Methyl Xanthine (1X), 1-Methyl Xanthine]
- % Cross-Reaction AAMU-Ab (AAMU-Ab): 0%
- % Cross-reaction 1,7-DMX-Ab (1,7-DMX-Ab): 0%
- % Cross-Reaction 1X-Ab (1X-Ab): 100%
- IC50 (1X-Ab; read-out: concentration required for 50% inhibition in the competitive antigen ELISA, 1X-Ab): 10 µM
- % Cross-reaction Caffeine-Ab (Caffeine-Ab): 0%
- % Cross-reaction 1,7-DMU-Ab (1,7-DMU-Ab): 0%

Structure (SMILES): Cn1c(=O)[nH]c2[nH]c(=O)[nH]c2c1=O [1-Methyluric acid]
- % Cross-Reaction AAMU-Ab (AAMU-Ab): 0%
- % Cross-reaction 1,7-DMX-Ab (1,7-DMX-Ab): 0%
- % Cross-Reaction 1X-Ab (1X-Ab): 11%
- % Cross-reaction Caffeine-Ab (Caffeine-Ab): 0%
- % Cross-reaction 1,7-DMU-Ab (1,7-DMU-Ab): 0%

Structure (SMILES): Cn1cnc2c1c(=O)[nH]c(=O)n2C [3,7-Dimethyl Xanthine (Theobromine), 3,7-Dimethyl Xanthine]
- % Cross-Reaction AAMU-Ab (AAMU-Ab): 0%
- % Cross-reaction 1,7-DMX-Ab (1,7-DMX-Ab): 0%
- % Cross-Reaction 1X-Ab (1X-Ab): 0%
- % Cross-reaction Caffeine-Ab (Caffeine-Ab): 0%
- % Cross-reaction 1,7-DMU-Ab (1,7-DMU-Ab): 0%

Structure (SMILES): Cn1c(=O)[nH]c(=O)c2c1[nH]c(=O)n2C [3,7-Dimethyluric acid]
- % Cross-reaction 1,7-DMX-Ab (1,7-DMX-Ab): 0%
- % Cross-reaction Caffeine-Ab (Caffeine-Ab): 0%
- % Cross-reaction 1,7-DMU-Ab (1,7-DMU-Ab): 0%

Structure (SMILES): Cn1c(=O)[nH]c(=O)c2[nH]cnc21 [3-Methyl Xanthine]
- % Cross-Reaction AAMU-Ab (AAMU-Ab): 0%
- % Cross-reaction 1,7-DMX-Ab (1,7-DMX-Ab): 0%
- % Cross-Reaction 1X-Ab (1X-Ab): 0%
- % Cross-reaction Caffeine-Ab (Caffeine-Ab): 0%
- % Cross-reaction 1,7-DMU-Ab (1,7-DMU-Ab): 0%

Structure (SMILES): Cn1c(=O)[nH]c(=O)c2[nH]c(=O)[nH]c21 [3-Methyluric acid]
- % Cross-reaction 1,7-DMX-Ab (1,7-DMX-Ab): 0%
- % Cross-reaction Caffeine-Ab (Caffeine-Ab): 0%
- % Cross-reaction 1,7-DMU-Ab (1,7-DMU-Ab): 0%

Structure (SMILES): CC(=O)Nc1c(N)n(C)c(=O)n(C)c1=O [5-Acetamino-6-amino-1,3-dimethyluracil]
- % Cross-Reaction AAMU-Ab (AAMU-Ab): 0%
- % Cross-reaction 1,7-DMX-Ab (1,7-DMX-Ab): 0%
- % Cross-Reaction 1X-Ab (1X-Ab): 0%
- % Cross-reaction Caffeine-Ab (Caffeine-Ab): 0%
- % Cross-reaction 1,7-DMU-Ab (1,7-DMU-Ab): 0%

Structure (SMILES): CC(=O)Nc1c(N)n(C)c(=O)[nH]c1=O [5-Acetamino-6-amino-1-methyluracil]
- % Cross-Reaction AAMU-Ab (AAMU-Ab): 100%
- IC50 (AAMU-Ab; read-out: concentration required for 50% inhibition in the competitive antigen ELISA, AAMU-Ab): 1.5 µM
- % Cross-reaction 1,7-DMX-Ab (1,7-DMX-Ab): 0%
- % Cross-Reaction 1X-Ab (1X-Ab): 0%
- % Cross-reaction Caffeine-Ab (Caffeine-Ab): 0%
- % Cross-reaction 1,7-DMU-Ab (1,7-DMU-Ab): 0%

Structure (SMILES): CC(=O)Nc1c(N)[nH]c(=O)[nH]c1=O [5-Acetamino-6-amino-uracil]
- % Cross-Reaction AAMU-Ab (AAMU-Ab): 0.6%
- % Cross-reaction 1,7-DMX-Ab (1,7-DMX-Ab): 0%
- % Cross-Reaction 1X-Ab (1X-Ab): 0%
- % Cross-reaction Caffeine-Ab (Caffeine-Ab): 0%
- % Cross-reaction 1,7-DMU-Ab (1,7-DMU-Ab): 0%

Structure (SMILES): Cn1cnc2[nH]c(=O)[nH]c(=O)c21 [7-Methyl Xanthine]
- % Cross-Reaction AAMU-Ab (AAMU-Ab): 0%
- % Cross-reaction 1,7-DMX-Ab (1,7-DMX-Ab): 0%
- % Cross-Reaction 1X-Ab (1X-Ab): 0%
- % Cross-reaction Caffeine-Ab (Caffeine-Ab): 0%
- % Cross-reaction 1,7-DMU-Ab (1,7-DMU-Ab): 0%

Structure (SMILES): Cn1c(=O)[nH]c2[nH]c(=O)[nH]c(=O)c21 [7-Methyluric acid]
- % Cross-reaction 1,7-DMX-Ab (1,7-DMX-Ab): 0%
- % Cross-reaction Caffeine-Ab (Caffeine-Ab): 0%
- % Cross-reaction 1,7-DMU-Ab (1,7-DMU-Ab): 0%
